From US7723072B2, “Polypeptide factor from a thermophilic eubacterial species and use thereof in the production of functional, heterologous proteins in an expression host” (University of Limerick, priority 2003, dated 2010) come the findings set out here.

Like-named read-outs stand apart in the source and are kept apart here.

Format in all cases: cell-based
For one assay, the system named is E. coli JM83. The assay can be described thus: Minimal inhibitory concentrations (MICs) for metal cations, E. coli JM83. The settings on record: 40 h at 37° C.
Assay [1] concerns E. coli JM83 containing pUC.
For assay [2], the system named is E. coli JM83 containing pUC with cloned czrB. The assay can be described thus: Minimal inhibitory concentrations (MICs) for metal cations, JM83 containing pUC with cloned czrB. As to conditions: clone +pUC-czrB.
The test system of assay [3] is E. coli cells. Nature of the assay: Intracellular zinc concentration in E. coli clones (atomic absorption). As to conditions: 1 h incubation in 0, 1, 2, 5 mM extracellular zinc; vs JM83 and pUC alone. An excerpt: Metal resistances of the type observed with the czrB clones can be the result of metal sequestering or modification of metal transport processes. However, based on reports of CzrB homologues in other organisms it was postulated that the protein CzrB provided resistance to heavy metal ions by an efflux mechanism rather than by metal sequestering. Therefore, the ability of the T. thermophilus CzrB protein to pump zinc ions out of the E. coli cells in which it was expressed was investigated. Intracellular zinc concentrations were measured as follows: E. coli clones were grown at 37° C. in LB medium (100 μg/ml ampicillin, 25 μg/ml streptomycin) in the presence or absence of 165 μM ZnCl2 until an OD600 of 1.0 was reached. After addition of 1, 2 or 5 mM ZnCl2, growth was continued for 30 min, 1 h or 2 h, with control cultures grown in the absence of ZnCl2. […] The zinc concentration was measured in the supernatant using an atomic absorption spectrophotometer (Varian SpectrAA-400 Plus), with standard solutions prepared immediately before use from commercial standards (Fisher Scientific). […] The results are shown in FIG. 3 which depicts a quantification of intracellular zinc levels in E. coli clones: JM83 (“JM83”), JM83 containing pUC (“pUC”), and JM83 containing pUC-czrB without (“czrB”) and with (“czrB (Zn)”) a zinc pre-induction step. […]

For assay [4], the system named is E. coli cells. The assay can be described thus: Growth (OD600) of E. coli clones during bacteriophage and recombinant antibody production. The settings on record: pHB102 phagemid, during phage and antibody production. As for the experimental part:
E. coli cells harbouring the Thermus library were inoculated to an OD600<0.05 in 10 ml 2xYT medium containing tetracycline (15 μg/ml), additional salts (8.6 mM NaCl; 2.5 mM KCl; 10 mM MgCl2) and 0.4% glucose. After 1 h at 37° C., 30 μg/ml chloramphenicol was added, followed by 10^10 pfu of helper phage (VCSM13 helper phage; Stratagene) at an OD600 of 0.5. Incubation at 50° C. for 5 min was followed by the addition of 50 ml 2xYT containing tetracycline, chloramphenicol, additional salts and 0.5 mM isopropyl-β-D-thiogalactoside (IPTG). The culture was shaken at 40° C. for 2 h and, after the addition of 30 μg/ml kanamycin, grown for a further 12-14 h at 40° C. Phage particles were precipitated from culture supernatants by two PEG precipitation steps and resuspended in 1 ml PBS (8 g NaCl, 0.24 g KH2PO4, 1.44 g Na2HPO4, 0.2 g KCl in 1 L, pH 7.4). Immunotubes (Nunc) were coated overnight at 4° C. with 1 μg/ml fluorescein-isothiocyanate coupled to bovine serum albumin (FITC-BSA) (Bothmann, H. and Plückthun, A (1998) supra) in PBS. […]
E. coli cells infected with phage were grown as described in Example 1. The OD600 was read at hourly intervals for the first 8-10 h after induction. […]

Assay [5] concerns E. coli cultures. Nature of the assay: Phage titers of E. coli clones. The settings on record: pHB102 vs pHB102-czrB; 10 and 22 h after induction. As for the experimental part: (§1) Individual clones were analysed by restriction digestion after 22 h of induction to confirm that they contained both the Thermus insert and the recombinant antibody gene. […] Immunoplate wells (Nunc) were coated with 100 μl of FITC-BSA and blocked with 5% skimmed milk in PBST. After washing, 100 μl of phage solutions containing 0.5% skimmed milk were added and incubated for 2 h at 25° C. Phage particles were detected using a peroxidase-conjugated anti-M13 antibody (1:3000 in PBST; Amersham Pharmacia Biotech Inc.) and development was carried out using a BM Blue POD soluble substrate (Roche Diagnostics). After stopping the reaction using 25 μl of 1 N H2SO4, the absorbance was read at 405 nm. […] The results are depicted in FIGS. 6 and 7.
FIG. 6 depicts phage titers of clones expressing czrB. The phage titers of clones containing pHB102 phagemid vector or pHB102-czrB expressed as colony forming units (cfu) were determined 10 and 22 h after induction.

The subject of assay [6] is E. coli cultures. The assay can be described thus: Anti-FITC ELISA of phage-displayed functional antibody. The settings on record: 10 and 22 h after induction. As for the experimental part:
as §1
FIG. 7 depicts ELISA analysis of clones expressing czrB. […] Results are shown for samples taken 10 and 22 h after induction.
On the technique in general: In an ELISA, binding on a coated surface is turned into a signal by an enzyme label.

Assay [7] relates to E. coli cells. The assay can be described thus: Growth of E. coli with czrB expressed from lac promoter in pUC-based vector. As to conditions: Plac induction; no bacteriophage, no recombinant antibody. The source says:
To investigate this theory further, czrB was expressed from a lac promoter in a standard pUC-based expression vector, in the absence of bacteriophage particles and the recombinant antibody used in experiments thus far. […] This raises the possibility that CzrB, in its full length form or as a truncated version, might function as an “universal chaperone”, which would facilitate the expression of any recombinant or heterologous proteins produced in an E. coli host.

Where [8] appears, read: clone +pUC, pre-induction cadmium (80 μM CdCl2).
Setting [9] is: clone +pUC, pre-induction cobalt (220 μM CoCl2).
The mark [10] stands for this setting: clone +pUC, pre-induction none, 40 h at 37° C.
The mark [11] stands for this setting: clone +pUC, pre-induction zinc (165 μM ZnCl2).
The mark [12] stands for this setting: pre-induction cadmium (80 μM CdCl2).
Where [13] appears, read: pre-induction cobalt (220 μM CoCl2).
Where [14] appears, read: pre-induction zinc (165 μM ZnCl2).

As a reminder, the MIC is the least concentration at which growth counts as inhibited. Read a low MIC as a more susceptible organism. For `[Cl][Cd][Cl]` [Cadmium, CdCl2], the MIC against E. coli JM83 (clone JM83, pre-induction none) was found to be 900 µM; in assay [1] (setting [8]), 700 µM; in assay [1] (setting [9]), 900 µM; in assay [1] (setting [10]), 900 µM; in assay [1] (setting [11]), 900 µM; in assay [2] (setting [12]), 900 µM. Also, the MIC in assay [2] (setting [13]) is 1100 µM; in assay [2] (pre-induction none), 1000 µM; in assay [2] (setting [14]) it was 1000 µM.

With `[Cl-].[Cl-].[Co+2]` [Cobalt, CoCl2], the MIC (with E. coli JM83; in assay [1]; in assay [1] (40 h at 37° C.); in assay [2] (setting [12]); in assay [2] (setting [13]); in assay [2] (pre-induction none)) was 2100 µM throughout. In assay [2] (setting [14]), the MIC worked out at 2100 µM.

`[Cl-].[Cl-].[Zn+2]` [Zinc, ZnCl2]: the MIC stood at 2000 µM with E. coli JM83 (clone JM83, pre-induction none); 1600 µM in assay [1] (setting [8]); 1600 µM in assay [1] (setting [9]); 1600 µM in assay [1] (setting [10]); 1600 µM in assay [1] (setting [11]); 2200 µM in assay [2] (setting [12]). Also, the figures for the minimal inhibitory concentration (MIC) in assay [2] (setting [13]), in assay [2] (pre-induction none) and in assay [2] (setting [14]) were 2100 µM, 1900 µM and 2500 µM, respectively.

B1: czrB: Polypeptide factor from Thermus thermophilus, 291 amino acids (SEQ ID NO: 1), co-expressed in E. coli (protein)
chain: MAEGAARLSLVVALLVLGLKAFAYLLTGSVALLSDALESLVNVAAALAALLALRVARKPPDQNHPFGHTKAEYVSAVLEGVLVVLAALWIAREALPRLLHPVPLEGLGLGLGVSLLASLLNGLLAYHLLKEGRRHRSPALTADGYHVLSDVLTSLGVVLGVGLAGLTGLWVLDPLLALAVAGQILFLGYRIVRESVGGLMDEGLPPEEVERIRAFLQERIRGRALEVHDLKTRRAGPRSFLEFHLVVRGDTPVEEAHRLCDELERALAQAFPGLQATIHVEPEGERKRTNP
modifications: Thermus thermophilus CzrB
For the molecule B1, the “levels of zinc in E. coli cells” value in the assay with E. coli cells [3] is recorded as “significantly reduce”. Also, the “cell densities attained relative to cells containing just the phagemid vector” value with E. coli cells [4] is reported as “greater than 2 fold”. In the assay on E. coli cultures [5], the “phage titres relative to cultures containing the vector alone” value is “two-fold higher”. Further, in the assay on E. coli cultures [6], the “amount of functional antibody relative to cultures containing the vector alone” value is listed as “more than twice”. The “E. coli cell growth relative to cells containing the vector alone” value in the assay with E. coli cells [7] is reported as “same pattern of E. coli cell growth”.

B2: partial czrB: Truncated form of the CzrB protein, 92 amino acids (SEQ ID NO: 2), C-terminal cytoplasmic tail (protein)
chain: MDEGLPPEEVERIRAFLQERIRGRALEVHDLKTRRAGPRSFLEFHLVVRGDTPVEEAHRLCDELERALAQAFPGLQATIHVEPEGERKRTNP
modifications: Thermus thermophilus CzrB
With B2, in the assay on E. coli cells [4], the growth characteristics result was “intermediate between the full-length czrB clone and cells containing the phagemid vector”. In the assay on E. coli cultures [5], the “phage titres relative to cultures containing the vector alone” value is “intermediate between the full-length gene and the control culture”. For the same molecule, in the assay on E. coli cultures [6], the “amount of functional antibody relative to cultures containing the vector alone” value was “intermediate between the full-length gene and the control culture”.
